# Read-outs that look alike come from different tables or passages of the source.
# How the values were obtained:
# [1] = biological target: single-chain tethered dimer of HIV protease (Human immunodeficiency virus 1, UniProt P04585); assay: biochemical; type: biochemical; set-up: fused on or other part: A second copy of the same protease unit is joined to the first by a short peptide tether, giving one polypeptide
# HIV-1 (RF) in MT-2 cells = assay: microbe, parasite or virus in culture; type: cell-based; settings: Table 2d
# How it was run: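 Read-out: gag and pol viral RNA captured by 5′-biotinylated oligonucleotides on streptavidin-coated wells, detected with alkaline phosphatase-linked reporter oligonucleotides, calibrated against BH10 in vitro transcripts. Virus stocks (RF, MN, IIIB) come from H9 cultures; MT-2 host cells kept in RPMI 1640, 5% FCS.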
# [2] = Table 2d; HIV protease inhibition, HPLC method; read-out: HPLC K1
# [3] = HIV protease inhibition, HPLC method; Table 2d; read-out: HPLC K1
# [4] = HIV RNA assay, HIV-1 infected MT-2 cells
# [5] = read-out: HPLC K1; HIV protease inhibition, HPLC method; Table 2d
# [6] = Human immunodeficiency virus 1, MT2, 48 h, HIV RNA assay, HIV-1 infected MT-2 cells, read-out: IC90
# [7] = read-out: HPLC K1; Table 2d; class symbols
# [8] = Human immunodeficiency virus 1, MT2, 48 h, class symbols, read-out: IC90
# [9] = Table 2d; class symbols; read-out: HPLC K1
# [10] = read-out: HPLC K1; Table 2d; HIV protease inhibition, HPLC method
# [11] = Human immunodeficiency virus 1, MT2, 48 h, HIV RNA assay, read-out: IC90
compound,measurement,setting,value
O=C(NCCCCCN1C(=O)N(CCCCCNC(=O)Nc2ccccc2)C(Cc2ccccc2)C(O)C(O)C1Cc1ccccc1)Nc1ccccc1 (centres unmarked) [15ER],Ki,[1]; [2],10 to 1000 nM
same,IC90,HIV-1 (RF) in MT-2 cells; HIV RNA assay,++/+ (The ++/+ is used in the cases where an IC90 was determined to be >50 μg/mL)
CNC(=O)NCCCCCN1C(=O)N(CCCCCNC(=O)NC)C(Cc2ccccc2)C(O)C(O)C1Cc1ccccc1 (centres unmarked) [15ES],Ki,[1]; [2],10 to 1000 nM
same,IC90,HIV-1 (RF) in MT-2 cells; HIV RNA assay,++/+ (The ++/+ is used in the cases where an IC90 was determined to be >50 μg/mL)
CC(=O)NCCCCCN1C(=O)N(CCCCCNC(C)=O)C(Cc2ccccc2)C(O)C(O)C1Cc1ccccc1 (centres unmarked) [15ET],Ki,[1]; [2],10 to 1000 nM
same,IC90,HIV-1 (RF) in MT-2 cells; HIV RNA assay,++/+ (The ++/+ is used in the cases where an IC90 was determined to be >50 μg/mL)
Cl.Cl.O=C(NCCCCCN1C(=O)N(CCCCCNC(=O)OCc2cccnc2)C(Cc2ccccc2)C(O)C(O)C1Cc1ccccc1)OCc1cccnc1 (centres unmarked) [15EU],Ki,[1]; [2],< 10 nM
same,IC90,HIV-1 (RF) in MT-2 cells; HIV RNA assay,+++ (+++=<10 μg/mL)
CNC(=S)NCCCCCN1C(=O)N(CCCCCNC(=S)NC)C(Cc2ccccc2)C(O)C(O)C1Cc1ccccc1 (centres unmarked) [15EV],Ki,[1]; [2],10 to 1000 nM
same,IC90,HIV-1 (RF) in MT-2 cells; HIV RNA assay,++/+ (The ++/+ is used in the cases where an IC90 was determined to be >50 μg/mL)
O=C1N(CCCCCNC(=S)Nc2ccccc2)C(Cc2ccccc2)C(O)C(O)C(Cc2ccccc2)N1CCCCCNC(=S)Nc1ccccc1 (centres unmarked) [15EW],Ki,[1]; [2],10 to 1000 nM
same,IC90,HIV-1 (RF) in MT-2 cells; HIV RNA assay,++/+ (The ++/+ is used in the cases where an IC90 was determined to be >50 μg/mL)
O=C(NCCCCCN1C(=O)N(CCCCCNC(=O)c2ccccc2)C(Cc2ccccc2)C(O)C(O)C1Cc1ccccc1)c1ccccc1 (centres unmarked) [15EX],Ki,[1]; [2],10 to 1000 nM
same,IC90,HIV-1 (RF) in MT-2 cells; HIV RNA assay,++/+ (The ++/+ is used in the cases where an IC90 was determined to be >50 μg/mL)
O=C(NCCCCCN1C(=O)N(CCCCCNC(=O)c2cccc(F)c2)C(Cc2ccccc2)C(O)C(O)C1Cc1ccccc1)c1cccc(F)c1 (centres unmarked) [15EY],Ki,[1]; [3],10 to 1000 nM
same,IC90,HIV-1 (RF) in MT-2 cells; [4],+++ (+++=<10 μg/mL)
CNCC(=O)NCCCCCN1C(=O)N(CCCCCNC(=O)CNC)C(Cc2ccccc2)C(O)C(O)C1Cc1ccccc1.Cl.Cl (centres unmarked) [15EZ],Ki,[1]; [3],10 to 1000 nM
same,IC90,HIV-1 (RF) in MT-2 cells; [4],++/+ (The ++/+ is used in the cases where an IC90 was determined to be >50 μg/mL)
Cl.Cl.O=C(NCCCCCN1C(=O)N(CCCCCNC(=O)c2ccncc2)C(Cc2ccccc2)C(O)C(O)C1Cc1ccccc1)c1ccncc1 (centres unmarked) [15FA],Ki,[1]; [3],10 to 1000 nM
same,IC90,HIV-1 (RF) in MT-2 cells; [4],+++ (+++=<10 μg/mL)
O=C(NCCCCCN1C(=O)N(CCCCCNC(=O)c2ccccc2F)C(Cc2ccccc2)C(O)C(O)C1Cc1ccccc1)c1ccccc1F (centres unmarked) [15FB],Ki,[1]; [3],10 to 1000 nM
same,IC90,HIV-1 (RF) in MT-2 cells; [4],+++ (+++=<10 μg/mL)
O=C(NCCCCCN1C(=O)N(CCCCCNC(=O)c2ccccc2F)C(Cc2ccccc2)C(O)C(O)C1Cc1ccccc1)c1ccc(F)cc1 (centres unmarked) [15FC],Ki,[1]; [3],10 to 1000 nM
same,IC90,HIV-1 (RF) in MT-2 cells; [4],++/+ (The ++/+ is used in the cases where an IC90 was determined to be >50 μg/mL)
N#CCCCCN1C(=O)N(CCCCC#N)C(Cc2ccccc2)C(O)C(O)C1Cc1ccccc1 (centres unmarked) [15FD],Ki,[1]; [5],10 to 1000 nM
same,IC90,HIV-1 (RF) in MT-2 cells; [6],10 to 100 µg/mL
Cl.Cl.O=C(CN1CCOCC1)NCCCCCN1C(=O)N(CCCCCNC(=O)CN2CCOCC2)C(Cc2ccccc2)C(O)C(O)C1Cc1ccccc1 (centres unmarked) [15FE],Ki,[1]; [3],10 to 1000 nM
same,IC90,HIV-1 (RF) in MT-2 cells; [4],++/+ (The ++/+ is used in the cases where an IC90 was determined to be >50 μg/mL)
O=C(NCCCCCN1C(=O)N(CCCCCNC(=O)c2cnccn2)C(Cc2ccccc2)C(O)C(O)C1Cc1ccccc1)c1cnccn1 (centres unmarked) [15FF],Ki,[1]; [3],> 1000 nM
same,IC90,HIV-1 (RF) in MT-2 cells; [4],++/+ (The ++/+ is used in the cases where an IC90 was determined to be >50 μg/mL)
O=C(NCCCCCN1C(=O)N(CCCCCNC(=O)c2cc(F)cc(F)c2)C(Cc2ccccc2)C(O)C(O)C1Cc1ccccc1)c1cc(F)cc(F)c1 (centres unmarked) [15FG],Ki,[1]; [3],10 to 1000 nM
same,IC90,HIV-1 (RF) in MT-2 cells; [4],++/+ (The ++/+ is used in the cases where an IC90 was determined to be >50 μg/mL)
CN(C)CCCCN1C(=O)N(CCCCN(C)C)C(Cc2ccccc2)C(O)C(O)C1Cc1ccccc1.Cl.Cl (centres unmarked) [15FH],Ki,[1]; [3],10 to 1000 nM
same,IC90,HIV-1 (RF) in MT-2 cells; [4],++/+ (The ++/+ is used in the cases where an IC90 was determined to be >50 μg/mL)
NCCCCN1C(=O)N(CCCCN)C(Cc2ccccc2)C(O)C(O)C1Cc1ccccc1 (centres unmarked) [15FI],Ki,[1]; [5],> 1000 nM
same,IC90,HIV-1 (RF) in MT-2 cells; [6],> 50 µg/mL
O=C(NCCCCCN1C(=O)N(CCCCCNC(=O)c2cccc(C(F)(F)F)c2)C(Cc2ccccc2)C(O)C(O)C1Cc1ccccc1)c1cccc(C(F)(F)F)c1 (centres unmarked) [15FJ],Ki,[1]; [3],10 to 1000 nM
same,IC90,HIV-1 (RF) in MT-2 cells; [4],++/+ (The ++/+ is used in the cases where an IC90 was determined to be >50 μg/mL)
Nc1cccc(CN2C(=O)N(CC3CC3)C(Cc3ccccc3)C(O)C(O)C2Cc2ccccc2)c1 (centres unmarked) [15G],Ki,[1]; [7],< 10 nM
same,IC90,HIV-1 (RF) in MT-2 cells; [8],< 10 µg/mL
O=C1N(Cc2cccc([N+](=O)[O-])c2)C(Cc2ccccc2)C(O)C(O)C(Cc2ccccc2)N1CC1CC1 (centres unmarked) [15H],Ki,[1]; [7],< 10 nM
same,IC90,HIV-1 (RF) in MT-2 cells; [8],< 10 µg/mL
CNc1cccc(CN2C(=O)N(Cc3ccc(CO)cc3)C(Cc3ccccc3)C(O)C(O)C2Cc2ccccc2)c1 (centres unmarked) [15M],Ki,[1]; [7],< 10 nM
same,IC90,HIV-1 (RF) in MT-2 cells; [8],< 10 µg/mL
CN(C)CC(=O)Nc1cccc(CN2C(=O)N(Cc3cccc(NC(=O)CN(C)C)c3)C(Cc3ccccc3)C(O)C(O)C2Cc2ccccc2)c1.Cl.Cl (centres unmarked) [15N],Ki,[1]; [9],< 10 nM
same,IC90,HIV-1 (RF) in MT-2 cells; class symbols,+++ (+++=<10 μg/mL)
CNCC(=O)Nc1cccc(CN2C(=O)N(Cc3cccc(NC(=O)CNC)c3)C(Cc3ccccc3)C(O)C(O)C2Cc2ccccc2)c1.Cl.Cl (centres unmarked) [15O],Ki,[1]; [9],< 10 nM
same,IC90,HIV-1 (RF) in MT-2 cells; class symbols,+++ (+++=<10 μg/mL)
NCC(=O)Nc1cccc(CN2C(=O)N(Cc3cccc(NC(=O)CN)c3)C(Cc3ccccc3)C(O)C(O)C2Cc2ccccc2)c1 (centres unmarked) [15R],Ki,[1]; [7],< 10 nM
same,IC90,HIV-1 (RF) in MT-2 cells; [8],< 10 µg/mL
CS(=O)(=O)CCCCCN1C(=O)N(CCCCCO)C(Cc2ccccc2)C(O)C(O)C1Cc1ccccc1 (centres unmarked) [15VT],Ki,[1]; [9],< 10 nM
same,IC90,HIV-1 (RF) in MT-2 cells; class symbols,+++ (+++=<10 μg/mL)
CCNC(=O)c1cccc(CN2C(=O)N(Cc3cccc(CO)c3)C(Cc3ccccc3)C(O)C(O)C2Cc2ccccc2)c1 (centres unmarked) [15WK],Ki,[1]; [7],< 10 nM
same,IC90,HIV-1 (RF) in MT-2 cells; [8],< 10 µg/mL
CCCNC(=O)c1cccc(CN2C(=O)N(Cc3cccc(C(=O)NCCC)c3)C(Cc3ccccc3)C(O)C(O)C2Cc2ccccc2)c1 (centres unmarked) [15WM],Ki,[1]; [7],< 10 nM
same,IC90,HIV-1 (RF) in MT-2 cells; [8],< 10 µg/mL
O=C1N(Cc2cccnc2)C(Cc2ccccc2)C(O)C(O)C(Cc2ccccc2)N1Cc1cccc(CO)c1 (centres unmarked) [15WS],Ki,[1]; [7],< 10 nM
same,IC90,HIV-1 (RF) in MT-2 cells; [8],< 10 µg/mL
Nc1cccc(CN2C(=O)N(Cc3ccc4ccccc4c3)C(Cc3ccccc3)C(O)C(O)C2Cc2ccccc2)c1 (centres unmarked) [15WU],Ki,[1]; [7],< 10 nM
same,IC90,HIV-1 (RF) in MT-2 cells; [8],< 10 µg/mL
O=C(O)c1ccc(CN2C(=O)N(Cc3ccc(CO)cc3)C(Cc3ccccc3)C(O)C(O)C2Cc2ccccc2)cc1 (centres unmarked) [15XA],Ki,[1]; [10],< 10 nM
same,IC90,HIV-1 (RF) in MT-2 cells; [11],10 to 100 µg/mL
O=Cc1ccc(CN2C(=O)N(Cc3ccc(CO)cc3)C(Cc3ccccc3)C(O)C(O)C2Cc2ccccc2)cc1 (centres unmarked) [15XB],Ki,[1]; [10],< 10 nM
same,IC90,HIV-1 (RF) in MT-2 cells; [11],< 10 µg/mL
CC(O)c1cccc(CN2C(=O)N(Cc3cccc(C(C)O)c3)C(Cc3ccccc3)C(O)C(O)C2Cc2ccccc2)c1 (centres unmarked) [15XD],Ki,[1]; [10],< 10 nM
same,IC90,HIV-1 (RF) in MT-2 cells; [11],< 10 µg/mL
NS(=O)(=O)c1cccc(CN2C(=O)N(Cc3cccc(S(N)(=O)=O)c3)C(Cc3ccccc3)C(O)C(O)C2Cc2ccccc2)c1 (centres unmarked) [15XQ],Ki,[1]; [10],< 10 nM
same,IC90,HIV-1 (RF) in MT-2 cells; [11],< 10 µg/mL
Cl.NCC(=O)Nc1cccc(CN2C(=O)N(Cc3ccc(CO)cc3)C(Cc3ccccc3)C(O)C(O)C2Cc2ccccc2)c1 (centres unmarked) [15XT],Ki,[1]; [2],< 10 nM
same,IC90,HIV-1 (RF) in MT-2 cells; HIV RNA assay,+++ (+++=<10 μg/mL)
O=C(NCCN1CCOCC1)c1cccc(CN2C(=O)N(Cc3cccc(C(=O)NCCN4CCOCC4)c3)C(Cc3ccccc3)C(O)C(O)C2Cc2ccccc2)c1 (centres unmarked) [15XU],Ki,[1]; [2],< 10 nM
same,IC90,HIV-1 (RF) in MT-2 cells; HIV RNA assay,+++ (+++=<10 μg/mL)
CN(C)CCNC(=O)c1cccc(CN2C(=O)N(CC3CC3)C(Cc3ccccc3)C(O)C(O)C2Cc2ccccc2)c1 (centres unmarked) [15YA],Ki,[1]; [2],< 10 nM
same,IC90,HIV-1 (RF) in MT-2 cells; HIV RNA assay,+++ (+++=<10 μg/mL)
